Measured values taken from US9271993B2, “Treatment of bacterial infectious diseases” (priority 2010, dated 2016).

How the values were obtained:
[1] = test system: bacterial ribosomes; test: Ribosomal drug susceptibility (MIC) of recombinant bacteria; design: MIC, bacterial ribosomes: unit not given beside the values; settings: for MIC, wild type bacteria: Table 10
[2] = test system: mitohybrid ribosomes; test: as above; design: MIC, mitohybrid ribosomes: unit not given beside the values; settings: for MIC, bacteria with mitohybrid ribosome: Table 10
[3] = test system: cytohybrid ribosomes; test: as above; design: MIC, cytohybrid ribosomes: unit not given beside the values; settings: for MIC, bacteria with cytohybrid ribosome: Table 10
[4] = test system: E. coli; test: MIC against gram-negative bacteria; assay type: cell-based
Description: Agents Chemother. 2003, 47:1496-1502.

[5] = test system: Cochlear explants from newborn mice; test: Cochleatoxicity in vitro, hair cell loss in cochlear explants; assay type: cell-based
Description: FIG. 1: Cochleatoxicity in vitro
(a) Dose-response relationship of drug-induced hair cell loss in cochlear explants. Hair cell loss was quantified along the entire length of the explant and plotted against drug concentration. %=% outer hair cells missing.
Cochlear explants from newborn mice were treated with 0.5 mM aminoglycoside compound for 24 h; subsequently hair cell damage was assessed by epifluorescence microscopy.

[6] = test system: clinical methicillin resistant Staphylococcus aureus (MRSA) isolates; test: MIC against clinical MRSA isolates, LB microdilution assay
Description: Activity was assessed by determination of minimal inhibitory concentrations (MIC), as described in Pfister et al., Antimicrob. […] Cultures from single colonies were grown in LB medium and used for MIC tests in a microtiter plate format. Starting cultures contained 200 μl of bacterial cells at an optical density of 0.025 at 600 nm, and the respective drug was added in twofold series of dilution.

CC(=O)O.CC(=O)O.CC(=O)O.CC(=O)O.CNC1C(OC2OC(CO)C(N)C(O)C2O)OC2CC(N)C(OC3C(N)CC(NC(=O)C(O)CCN)C(O)C3O)OC2C1O [ETH 102, 1-N-[(2S)-4-Amino-2-hydroxybutyryl]apramycin tetraacetate]
MIC, wild type bacteria [1]: 4.0 mg/L | MIC, bacteria with mitohybrid ribosome [2]: >256.0 mg/L | MIC, bacteria with cytohybrid ribosome [3]: >256.0 mg/L

Neomycin
MIC ([4]; E. coli AG01, clin. isol. (Gm^S)): 8 to 16 mg/L | MIC ([4]; E. coli AG02, clin. isol (Gm^S)): 4 mg/L | MIC ([4]; E. coli AG03, clin. isol (Gm^R)): 4 mg/L | MIC ([4]; E. coli AG06, BM13): 1 mg/L | MIC ([4]; E. coli AG07, BM13/pIP135, resistance mechanism AAC(3)): 4 mg/L | MIC ([4]; E. coli AG08, BM13/pIP055, resistance mechanism ANT(2″)): 2 to 4 mg/L | MIC ([4]; E. coli AG09, AAC(6′)-1B, resistance mechanism AAC(6′)): 8 to 32 mg/L | MIC ([4]; E. coli AG36, HB101/pAT197, resistance mechanism ANT(4′)): 32 mg/L | MIC ([4]; E. coli AG37, HB101/pAG21-1, resistance mechanism APH(3′)): >256 mg/L | Hair cell count ([5]; 0.5 mM aminoglycoside for 24 h, epifluorescence microscopy): almost all hair cells (inner and outer) missing | inner and outer hair cells missing / lost ([5]; 0.5 mM, FIG. 1): > 80% | MIC ([6]; MRSA AG038, strain 70-26S Gm^S): 0.5 to 1 mg/L | MIC ([6]; MRSA AG040, strain 87-26S Gm^S): 128 mg/L | MIC ([6]; MRSA AG041, strain 98-25S Gm^S): 0.5 to 1 mg/L | MIC ([6]; MRSA AG042, strain 101-06R Gm^R): 128 mg/L | MIC ([6]; MRSA AG043, strain 01-08R Gm^R): 1 to 4 mg/L | MIC ([6]; MRSA AG044, strain 07-12R Gm^R): 0.5 to 1 mg/L | MIC ([6]; MRSA AG045, strain 08-12R Gm^R): 0.5 to 1 mg/L | MIC ([6]; MRSA AG046, strain 12-06R Gm^R): >256 mg/L | MIC ([6]; MRSA AG047, strain 18-06R Gm^R): 256 mg/L | MIC ([6]; MRSA AG048, strain 20-06R Gm^R): 256 mg/L | MIC ([6]; MRSA AG049, strain 23-12R Gm^R): >256 mg/L | MIC ([6]; MRSA AG050, strain 31-06R Gm^R): 64 mg/L | MIC ([6]; MRSA AG051, strain 36-06R Gm^R): 64 mg/L | MIC ([6]; MRSA AG052, strain 53-14I Gm^R): >256 mg/L | MIC ([6]; MRSA AG053, strain 56-06R Gm^R): 0.5 to 1 mg/L | MIC, bacterial ribosomes ([1]; Table 7, 72 h incubation): 1 | MIC, mitohybrid ribosomes ([2]; Table 7, 72 h incubation): 32 | MIC, cytohybrid ribosomes ([3]; Table 7, 72 h incubation): 1024

CC(=O)O.CC(=O)O.CC(=O)O.CC(=O)O.CN1C(=O)OC2C3OC(OC4C(N)CC(N)C(O)C4O)C(N)CC3OC(OC3OC(CO)C(NC(=O)C(O)CCN)C(O)C3O)C21 [ETH 99, 7′-N,6′-O-Carbonyl-4″-N-[(2S)-4-amino-2-hydroxybutyryl]apramycin tetraacetate]
MIC, wild type bacteria [1]: 2.0 to 4.0 mg/L | MIC, bacteria with mitohybrid ribosome [2]: >256.0 mg/L | MIC, bacteria with cytohybrid ribosome [3]: >256.0 mg/L

CNC1C(OC2OC(CO)C(NC(=O)C(O)CCN)C(O)C2O)OC2CC(N)C(OC3C(N)CC(N)C(O)C3O)OC2C1O [ETH 105, 4″-N-[(2S)-4-Amino-2-hydroxybutyryl]apramycin]
MIC, wild type bacteria [1]: 4.0 mg/L | MIC, bacteria with mitohybrid ribosome [2]: >256.0 mg/L | MIC, bacteria with cytohybrid ribosome [3]: >256.0 mg/L
